Columns and labels:
[1] = human
[2] = human, serum
[3] = human; remark: listed apart in the source
[4] = Highest frequency of acute liver toxicity observed during clinical trials, expressed as a percentage. [column '% AIGUE' in source]; conditions: human
[5] = Times to onset, minimal and maximal, observed in the indexed observations. [column 'DELAI' in source]; conditions: human
[6] = human; remark: listed apart in the source
[7] = human; remark: listed apart in the source
[8] = human; remark: listed apart in the source
[9] = human; remark: listed apart in the source
[10] = human; remark: listed apart in the source
[11] = human, serum; remark: listed apart in the source
[12] = human; remark: listed apart in the source
[13] = Highest frequency of moderate liver toxicity observed during clinical trials, expressed as a percentage. [column '% BIOL' in source]; conditions: human
[14] = human; remark: listed apart in the source
[15] = human; remark: listed apart in the source
[16] = human, serum, 4383 h
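For Hepatotoxicity (association with vascular disease) in this document: count of indexed literature references reporting vascular liver injury in humans, e.g. peliosis hepatitis, hepatic veno-occlusive disease or Budd-Chiari syndrome.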
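For Hepatotoxicity (benign tumour) in this document: value is a count of indexed literature references citing a benign tumour confirmed by histopathology.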
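For Hepatotoxicity (choleostasis) in this document: human cholestatic liver injury, shown by histopathology or by peak ALT or AST elevation over alkaline phosphatase ratio below 2, value counts indexed literature reports.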
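For Hepatotoxicity (chronic liver disease) in this document: chronic liver injury confirmed by histopathology or persistently raised serum aminotransferase activity beyond 6 months, value given as the count of indexed literature references.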
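For Hepatotoxicity (cirrhosis) in this document: value is a count of indexed literature references reporting cirrhosis confirmed by histopathology.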
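For Hepatotoxicity (cytolytic) in this document: human cytolytic liver injury, shown by histopathology or by a ratio above 5 of peak ALT or AST elevation to alkaline phosphatase elevation, value counts indexed references.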
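For Hepatotoxicity (granulomatous hepatitis) in this document: value is a count of indexed literature references reporting granulomatous liver disease confirmed by histopathology.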
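For Hepatotoxicity (malignant tumour) in this document: malignant tumour confirmed by histopathology, value gives the count of indexed literature references reporting it.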
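For Hepatotoxicity (severe hepatitis) in this document: human clinical data: severe hepatitis, meaning potentially life-threatening liver failure or clinically observed cases, the value counts how many indexed literature references report it.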
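For Hepatotoxicity (steatosis) in this document: steatosis confirmed by histopathology, value is the count of indexed references.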

OC(c1cc(C(F)(F)F)nc2c(C(F)(F)F)cccc12)C1CCCCN1 (stereo not given) [MEFLOQUINE]
Hepatotoxicity (steatosis) [1]: 1
Hepatotoxicity (acute) [2]: 2
Hepatotoxicity (animal toxicity known) [3]: yes
Hepatotoxicity (acute) [4]: 0%
Hepatotoxicity (time to onset) [5]: 2 weeks - 3 weeks
Hepatotoxicity (severe hepatitis) [6]: 0
Hepatotoxicity (association with vascular disease) [7]: 0
Hepatotoxicity (granulomatous hepatitis) [8]: 0
Hepatotoxicity (cytolytic) [9]: 1
Hepatotoxicity (malignant tumour) [10]: 0
Hepatotoxicity (moderate) [11]: 5
Hepatotoxicity (benign tumour) [12]: 0
Hepatotoxicity (moderate) [13]: 22.5%
Hepatotoxicity (choleostasis) [14]: 0
Hepatotoxicity (cirrhosis) [15]: 0
Hepatotoxicity (chronic liver disease) [16]: 0

Nc1ncn([C@@H]2O[C@H](CO)[C@@H](O)[C@H]2O)c(=O)n1 [AZACITIDINE]
Hepatotoxicity (steatosis) [1]: 0
Hepatotoxicity (acute) [2]: 1
Hepatotoxicity (animal toxicity known) [3]: yes
Hepatotoxicity (acute) ([4]; Liver): 0%
Hepatotoxicity (time to onset) [5]: 1 week
Hepatotoxicity (severe hepatitis) ([6]; Liver): 2
Hepatotoxicity (association with vascular disease) [7]: 0
Hepatotoxicity (granulomatous hepatitis) ([8]; Liver): 0
Hepatotoxicity (cytolytic) ([9]; Liver): 1
Hepatotoxicity (malignant tumour) [10]: 0
Hepatotoxicity (moderate) [11]: 5
Hepatotoxicity (benign tumour) [12]: 0
Hepatotoxicity (moderate) ([13]; Liver): 62.5%
Hepatotoxicity (choleostasis) ([14]; Liver): 0
Hepatotoxicity (cirrhosis) [15]: 0
Hepatotoxicity (chronic liver disease) [16]: 0

C[C@H](CCC(=O)O)[C@H]1CC[C@H]2[C@@H]3[C@@H](O)C[C@@H]4C[C@H](O)CC[C@]4(C)[C@H]3CC[C@]12C [URSODIOL]
Hepatotoxicity (steatosis) [1]: 0
Hepatotoxicity (acute) [2]: 1
Hepatotoxicity (animal toxicity known) [3]: yes
Hepatotoxicity (acute) [4]: 0%
Hepatotoxicity (time to onset) [5]: 3 weeks - 14 weeks
Hepatotoxicity (severe hepatitis) [6]: 0
Hepatotoxicity (association with vascular disease) [7]: 0
Hepatotoxicity (granulomatous hepatitis) [8]: 0
Hepatotoxicity (cytolytic) [9]: 0
Hepatotoxicity (malignant tumour) [10]: 0
Hepatotoxicity (moderate) [11]: 8
Hepatotoxicity (benign tumour) [12]: 0
Hepatotoxicity (moderate) [13]: 4.2%
Hepatotoxicity (choleostasis) [14]: 0
Hepatotoxicity (cirrhosis) [15]: 0
Hepatotoxicity (chronic liver disease) [16]: 0

CC(C)[C@](O)(C(=O)OCC1=CC[N+]2([O-])CC[C@@H](O)[C@@H]12)[C@H](C)O (stereo not given in full) [INDICINE N-OXIDE]
Hepatotoxicity (steatosis) [1]: 0
Hepatotoxicity (acute) [2]: 6
Hepatotoxicity (animal toxicity known) [3]: yes
Hepatotoxicity (acute) [4]: 22.7%
Hepatotoxicity (time to onset) [5]: 1 cure - 2 cures
Hepatotoxicity (severe hepatitis) [6]: 4
Hepatotoxicity (association with vascular disease) [7]: 1
Hepatotoxicity (granulomatous hepatitis) [8]: 0
Hepatotoxicity (cytolytic) [9]: 4
Hepatotoxicity (malignant tumour) [10]: 0
Hepatotoxicity (moderate) [11]: 8
Hepatotoxicity (benign tumour) [12]: 0
Hepatotoxicity (moderate) [13]: 62.5%
Hepatotoxicity (choleostasis) [14]: 0
Hepatotoxicity (cirrhosis) [15]: 0
Hepatotoxicity (chronic liver disease) [16]: 0

NNCCc1ccccc1 [PHENELZINE]
Hepatotoxicity (steatosis) [1]: 0
Hepatotoxicity (acute) [2]: 6
Hepatotoxicity (animal toxicity known) [3]: yes
Hepatotoxicity (acute) ([4]; Liver): 0%
Hepatotoxicity (time to onset) [5]: 3 weeks - 5 months
Hepatotoxicity (severe hepatitis) ([6]; Liver): 7
Hepatotoxicity (association with vascular disease) [7]: 0
Hepatotoxicity (granulomatous hepatitis) ([8]; Liver): 0
Hepatotoxicity (cytolytic) ([9]; Liver): 6
Hepatotoxicity (malignant tumour) [10]: 1
Hepatotoxicity (moderate) [11]: 1
Hepatotoxicity (benign tumour) [12]: 0
Hepatotoxicity (moderate) ([13]; Liver): 0%
Hepatotoxicity (choleostasis) ([14]; Liver): 0
Hepatotoxicity (cirrhosis) [15]: 1
Hepatotoxicity (chronic liver disease) [16]: 0

CCN1CC(CCN2CCOCC2)C(c2ccccc2)(c2ccccc2)C1=O (stereo not given) [DOXAPRAM]
Hepatotoxicity (steatosis) [1]: 1
Hepatotoxicity (acute) [2]: 1
Hepatotoxicity (animal toxicity known) [3]: yes
Hepatotoxicity (acute) [4]: 0%
Hepatotoxicity (time to onset) [5]: 1 day - 5 days
Hepatotoxicity (severe hepatitis) [6]: 0
Hepatotoxicity (association with vascular disease) [7]: 0
Hepatotoxicity (granulomatous hepatitis) [8]: 0
Hepatotoxicity (cytolytic) [9]: 1
Hepatotoxicity (malignant tumour) [10]: 0
Hepatotoxicity (moderate) [11]: 1
Hepatotoxicity (benign tumour) [12]: 0
Hepatotoxicity (moderate) [13]: 0%
Hepatotoxicity (choleostasis) [14]: 0
Hepatotoxicity (cirrhosis) [15]: 0
Hepatotoxicity (chronic liver disease) [16]: 0

CN(C)[C@@H]1C(O)=C(C(=O)NCN2CCCC2)C(=O)[C@@]2(O)C(O)=C3C(=O)c4c(O)cccc4[C@@](C)(O)[C@H]3C[C@@H]12 [ROLITETRACYCLINE]
Hepatotoxicity (steatosis) [1]: 0
Hepatotoxicity (acute) [2]: 1
Hepatotoxicity (animal toxicity known) [3]: yes
Hepatotoxicity (acute) [4]: 0%
Hepatotoxicity (time to onset) [5]: 2 days
Hepatotoxicity (severe hepatitis) [6]: 1
Hepatotoxicity (association with vascular disease) [7]: 0
Hepatotoxicity (granulomatous hepatitis) [8]: 0
Hepatotoxicity (cytolytic) [9]: 1
Hepatotoxicity (malignant tumour) [10]: 0
Hepatotoxicity (moderate) [11]: 0
Hepatotoxicity (benign tumour) [12]: 0
Hepatotoxicity (moderate) [13]: 0%
Hepatotoxicity (choleostasis) [14]: 0
Hepatotoxicity (cirrhosis) [15]: 0
Hepatotoxicity (chronic liver disease) [16]: 0

Cl[C@H]1[C@H](Cl)[C@@H](Cl)[C@@H](Cl)[C@H](Cl)[C@H]1Cl [LINDANE]
Hepatotoxicity (steatosis) [1]: 0
Hepatotoxicity (acute) [2]: 2
Hepatotoxicity (animal toxicity known) [3]: yes
Hepatotoxicity (acute) ([4]; Liver): 0%
Hepatotoxicity (time to onset) [5]: 3 weeks
Hepatotoxicity (severe hepatitis) ([6]; Liver): 0
Hepatotoxicity (association with vascular disease) [7]: 0
Hepatotoxicity (granulomatous hepatitis) ([8]; Liver): 0
Hepatotoxicity (cytolytic) ([9]; Liver): 1
Hepatotoxicity (malignant tumour) [10]: 0
Hepatotoxicity (moderate) [11]: 0
Hepatotoxicity (benign tumour) [12]: 0
Hepatotoxicity (moderate) ([13]; Liver): 0%
Hepatotoxicity (choleostasis) ([14]; Liver): 0
Hepatotoxicity (cirrhosis) [15]: 0
Hepatotoxicity (chronic liver disease) [16]: 0

COC(=O)[C@H]1[C@H]2C[C@@H]3c4[nH]c5cc(OC)ccc5c4CCN3C[C@H]2C[C@@H](OC(=O)c2cc(OC)c(OC)c(OC)c2)[C@@H]1OC [RESERPINE]
Hepatotoxicity (steatosis) [1]: 0
Hepatotoxicity (acute) [2]: 3
Hepatotoxicity (animal toxicity known) [3]: yes
Hepatotoxicity (acute) [4]: 0%
Hepatotoxicity (time to onset) [5]: 1 year
Hepatotoxicity (severe hepatitis) [6]: 0
Hepatotoxicity (association with vascular disease) [7]: 0
Hepatotoxicity (granulomatous hepatitis) [8]: 0
Hepatotoxicity (cytolytic) [9]: 0
Hepatotoxicity (malignant tumour) [10]: 0
Hepatotoxicity (moderate) [11]: 0
Hepatotoxicity (benign tumour) [12]: 0
Hepatotoxicity (moderate) [13]: 0%
Hepatotoxicity (choleostasis) [14]: 1
Hepatotoxicity (cirrhosis) [15]: 0
Hepatotoxicity (chronic liver disease) [16]: 0

COc1ccc2c(C(=S)N(C)CC(=O)O)cccc2c1C(F)(F)F [TOLRESTAT]
Hepatotoxicity (steatosis) [1]: 0
Hepatotoxicity (acute) [2]: 2
Hepatotoxicity (animal toxicity known) [3]: yes
Hepatotoxicity (acute) [4]: 0.2%
Hepatotoxicity (time to onset) [5]: 7 weeks - 6 months
Hepatotoxicity (severe hepatitis) [6]: 1
Hepatotoxicity (association with vascular disease) [7]: 0
Hepatotoxicity (granulomatous hepatitis) [8]: 0
Hepatotoxicity (cytolytic) [9]: 2
Hepatotoxicity (malignant tumour) [10]: 0
Hepatotoxicity (moderate) [11]: 7
Hepatotoxicity (benign tumour) [12]: 0
Hepatotoxicity (moderate) [13]: 15.4%
Hepatotoxicity (choleostasis) [14]: 0
Hepatotoxicity (cirrhosis) [15]: 0
Hepatotoxicity (chronic liver disease) [16]: 0

— ChEMBL document CHEMBL3137667, “[Drug-induced liver injury; fourteenth updated edition of the bibliographic database of liver injuries and related drugs]” (Gastroenterol Clin Biol, 2004)
